Earlier results as cited in US8440796B2, “Lenalidomide and thalidomide immunoassays” (Saladax Biomedical Inc., priority 2010, dated 2013).
Where two headings read alike, the source gives them in different places.

Experiments:
[1] = patients with central nervous system tumors
[2] = healthy subjects
[3] = HIV patients, phase I study

variability in Cmax [1]	variability in t1/2 [1]	Structure (SMILES)	variability in Cmax [2]	variability in t1/2 [2]	half-life time t1/2 [3] [h]	maximum drug concentration Cmax [3] [ng/mL]
up to 78%	up to 122%	Nc1cccc2c1CN(C1CCC(=O)NC1=O)C2=O (stereo not drawn) [lenalidomide]				
		O=C1CCC(N2C(=O)c3ccccc3C2=O)C(=O)N1 (stereo not drawn) [thalidomide]	up to 52%	up to 37%	5.9 ± 2.3	2800 ± 2600
